This is an account of results in ChEMBL document CHEMBL4831555, “Identification and Validation of New Interleukin-2 Ligands Using DNA-Encoded Libraries” (J Med Chem, 2021).

One test concerns the target Albumin (Homo sapiens, UniProt P02768). Nature of the test: Binding affinity to human serum albumin by fluorescence polarization assay. (In fluorescence polarisation assays a small probe gives low polarisation when free and higher when bound to something large.)
The target of test [1] is T1, Interleukin-2 (Homo sapiens, UniProt P60568). Nature of the test: Binding affinity to L19-IL2 (unknown origin) by fluorescence polarization assay.
Test [2] can be described thus: Inhibition of IL2/IL-2Ralpha (unknown origin) interaction. The arrangement: species or system Homo sapiens.
Test [3] in a line: Binding affinity to AGP (unknown origin) by fluorescence polarization assay. Details: species or system Homo sapiens.
The target of a further test is Tumor necrosis factor (Homo sapiens, UniProt P01375). Nature of the test: Binding affinity to TNF (unknown origin).
For test [4], the target named is T1, Interleukin-2. Briefly: Binding affinity to IL2 (unknown origin) by SPR assay.
In test [5] the target is Interleukin-15 (Homo sapiens) (UniProt P40933). Briefly: Binding affinity to IL-15 (unknown origin).
For test [6], the target named is T1, Interleukin-2. Briefly: Binding affinity to IL2 (unknown origin) preincubated for 15 mins followed by NARA1 addition and measured after 1 hr in presence of NARA1 by ELISA. (In general: ELISA stands for enzyme-linked immunosorbent assay.)

Structures are written as SMILES. Activity calls are given as the source filed them. The calls are words filed in the database; no cut-off is given here.

T1 sequence (P60568 whole entry): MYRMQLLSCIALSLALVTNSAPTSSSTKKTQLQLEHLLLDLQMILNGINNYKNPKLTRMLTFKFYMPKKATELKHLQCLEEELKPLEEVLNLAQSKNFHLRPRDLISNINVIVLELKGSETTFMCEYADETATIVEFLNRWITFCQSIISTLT
Albumin, sequence (P02768 whole entry): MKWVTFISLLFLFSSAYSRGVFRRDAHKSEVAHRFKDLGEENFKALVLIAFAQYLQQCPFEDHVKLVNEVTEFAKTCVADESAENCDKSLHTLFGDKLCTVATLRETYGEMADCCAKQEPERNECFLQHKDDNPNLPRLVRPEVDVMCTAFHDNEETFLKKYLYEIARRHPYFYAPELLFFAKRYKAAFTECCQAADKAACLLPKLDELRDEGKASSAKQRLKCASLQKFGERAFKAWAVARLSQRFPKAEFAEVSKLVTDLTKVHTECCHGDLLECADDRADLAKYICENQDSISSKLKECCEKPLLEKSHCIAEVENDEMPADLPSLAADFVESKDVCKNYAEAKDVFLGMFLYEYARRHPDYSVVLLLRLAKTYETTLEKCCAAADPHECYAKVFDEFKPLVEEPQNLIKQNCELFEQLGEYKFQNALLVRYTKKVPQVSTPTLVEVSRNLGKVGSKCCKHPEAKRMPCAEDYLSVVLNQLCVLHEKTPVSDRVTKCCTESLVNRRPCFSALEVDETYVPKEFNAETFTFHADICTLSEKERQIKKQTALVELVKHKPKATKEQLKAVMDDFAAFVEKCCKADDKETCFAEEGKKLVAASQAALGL
Tumor necrosis factor, sequence (P01375 whole entry): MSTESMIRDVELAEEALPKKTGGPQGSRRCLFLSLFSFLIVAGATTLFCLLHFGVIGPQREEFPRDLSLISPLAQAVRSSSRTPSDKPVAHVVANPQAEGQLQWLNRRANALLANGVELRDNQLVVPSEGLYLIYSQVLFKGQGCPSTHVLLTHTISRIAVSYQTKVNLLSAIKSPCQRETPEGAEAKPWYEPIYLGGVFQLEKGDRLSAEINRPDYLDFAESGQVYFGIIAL
Interleukin-15 (Homo sapiens), sequence (P40933 whole entry): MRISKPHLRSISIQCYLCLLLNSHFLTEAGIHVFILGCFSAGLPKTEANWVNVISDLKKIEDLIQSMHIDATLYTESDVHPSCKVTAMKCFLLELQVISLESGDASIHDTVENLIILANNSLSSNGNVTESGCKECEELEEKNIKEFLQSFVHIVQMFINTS

With `O=C(N[C@@H](Cc1ccc(O)c(Br)c1)C(=O)O)c1cc2c(F)cccc2[nH]1`, the Kd (commonly the free concentration of one partner at which half of the binding sites on the other are occupied at equilibrium, for simple one-to-one binding) on Albumin turned out to be 780 nM; on Interleukin-2 [1], 300 nM.

As for `O=C(N[C@@H](Cc1ccc(O)c(I)c1)C(=O)O)c1cc2cccc(F)c2[nH]1`, the Kd at Albumin stood at 210 nM; at Interleukin-2 [1] it was 390 nM.

In the case of `O=C(N[C@H](Cc1ccc(O)c(I)c1)C(=O)O)c1cc2c(F)cccc2[nH]1`, the values for the Kd on Albumin and at Interleukin-2 [1] were 220 nM and 210 nM, respectively.

As to `CC(C)C[C@@H](NC(=N)N)C(=O)NCC(=O)N1CCC(c2cc(-c3ccc(OCc4ccc(C(=O)O)o4)c(Cl)c3Cl)nn2C)CC1`, half-maximal inhibition in test [2] (IC50) required 60 nM.

Regarding `O=C(N[C@@H](Cc1ccc(O)c(I)c1)C(=O)O)c1cc2ccc(F)cc2[nH]1`, the Kd on Albumin is 170 nM; at Interleukin-2 [1], 280 nM.

As for `N=C(N)NCCC[C@@H](NC(=O)[C@@H](Cc1ccc(O)c(I)c1)NC(=O)c1cc2c(F)cccc2[nH]1)C(=O)O`, the figures for the Kd (on Albumin; in test [3]; at Interleukin-2 [1]) were 7200 nM, 4 µM and 710 nM, respectively.

In the case of `O=C(N[C@@H](Cc1ccc(O)cc1)C(=O)O)c1cc2c(F)cccc2[nH]1`, the Kd at Albumin turned out to be 1500 nM; at Interleukin-2 [1], 1400 nM.

For `O=C(N[C@@H](Cc1ccc(O)c(F)c1)C(=O)O)c1cc2c(F)cccc2[nH]1`, the figures for the Kd on Albumin and at Interleukin-2 [1] were 1700 nM and 920 nM, respectively.

`O=C(N[C@@H](Cc1ccc(O)c(I)c1)C(=O)O)c1cc2c(F)cccc2[nH]1`: the Kd turned out to be 5.1 µM on Tumor necrosis factor, 290 nM on Albumin and 250 nM at Interleukin-2 [1].

Turning to `O=C(N[C@@H](Cc1ccc(O)c(I)c1)C(=O)O)c1cc2cc(F)ccc2[nH]1`, the figures for the Kd on Albumin and at Interleukin-2 [1] were 270 nM and 330 nM, respectively.

Regarding `O=C(N[C@@H](Cc1cccc(I)c1)C(=O)O)c1cc2c(F)cccc2[nH]1`, the equilibrium dissociation constant (Kd) came to 20 nM at Albumin and 250 nM at Interleukin-2 [1].

For the molecule `O=C(N[C@@H](Cc1ccc(O)c(I)c1)C(=O)O)c1cc2ccccc2[nH]1`, the Kd at Albumin is 390 nM; at Interleukin-2 [1], 420 nM.

With `O=C(N[C@@H](Cc1ccc(O)c(Cl)c1)C(=O)O)c1cc2c(F)cccc2[nH]1`, the Kd at Albumin came to 580 nM; on Interleukin-2 [1], 590 nM.

Take `O=C(N[C@@H](Cc1ccc(O)c(I)c1)C(=O)O)c1cc2c(F)cccc2o1`: the values for the Kd on Albumin and at Interleukin-2 [1] were 1000 nM and 2200 nM, respectively.

With `N=C(N)NCCC[C@@H](NC(=O)[C@H](Cc1ccc(O)c(I)c1)NC(=O)c1cc2c(F)cccc2[nH]1)C(=O)O`, the Kd stood at 9600 nM on Albumin, 3 µM in test [3] and 870 nM on Interleukin-2 [1].

Turning to `COc1ccc(C[C@H](NC(=O)c2cc3c(F)cccc3[nH]2)C(=O)O)cc1`, the Kd on Albumin is 430 nM; at Interleukin-2 [1] it was 1300 nM.

For the molecule `COC(=O)[C@H](Cc1ccc(C#Cc2ccccc2)cc1)NC(=O)C[C@@H]1CCCN(C(=N)N)C1`, the Kd came out at 22 µM on Interleukin-2 [4], 4000 nM at Albumin, 4.9 µM in test [3] and 1500 nM at Interleukin-2 [1]. Half-maximal inhibition in test [2] (IC50) required 3000 nM.

Regarding `N=C(N)NCCC[C@H](NC(=O)[C@@H](Cc1ccc(O)c(I)c1)NC(=O)c1cc2c(F)cccc2[nH]1)C(=O)O`, the Kd at Albumin was 3300 nM; in test [3] it was more than 10 µM; on Interleukin-2 [1] it was 1200 nM.

As for `O=C(N[C@@H](Cc1ccc(I)cc1)C(=O)O)c1cc2c(F)cccc2[nH]1`, the Kd worked out at 70 nM on Albumin and 640 nM on Interleukin-2 [1].

In the case of `O=C(N[C@@H](Cc1ccc(O)c([N+](=O)[O-])c1)C(=O)O)c1cc2c(F)cccc2[nH]1`, the Kd on Albumin turned out to be 310 nM; on Interleukin-2 [1], 720 nM.

As for `N=C(N)NCCC[C@H](NC(=O)[C@H](Cc1ccc(O)c(I)c1)NC(=O)c1cc2c(F)cccc2[nH]1)C(=O)O`, the Kd on Tumor necrosis factor is 4.4 µM; at Albumin, 2000 nM; in test [3], 3.4 µM; on Interleukin-2 [1] it was 340 nM. The outcome in test [5] was inactive. In addition, the IC50 (commonly the concentration that gives 50% inhibition) on Interleukin-2 [6] is 3.4 µM.

For the molecule `O=C(N[C@@H](Cc1ccc(O)c(I)c1)C(=O)O)c1c[nH]c2cccc(F)c12`, the Kd on Albumin is 820 nM; on Interleukin-2 [1], 510 nM.

As to `O=C(N[C@@H](Cc1ccc2ccccc2c1)C(=O)O)c1cc2c(F)cccc2[nH]1`, the Kd at Albumin is 30 nM; on Interleukin-2 [1], 750 nM.
